# Measured values published in US10738028B2, “Spiro three-membered ring, spiro five-membered ring peptide deformylase inhibitor and use thereof in antibacteria and anti-tumor” (priority 2016, dated 2020).
# Assays:
# Assay type in all cases: cell-based
# [1] = system: Enterococcus faecalis (EFA); test: MIC, two-fold agar dilution (CLSI), clinical isolates; settings: for Anti-bacterial activity (MIC), strain EFA 15-1: clinical isolate EFA 15-1; for Anti-bacterial activity (MIC), strain EFA 15-2: clinical isolate EFA 15-2; for Anti-bacterial activity (MIC), strain EFA 15-3: clinical isolate EFA 15-3; for Anti-bacterial activity (MIC), strain EFA 15-4: clinical isolate EFA 15-4; for Anti-bacterial activity (MIC), strain EFA 15-5: clinical isolate EFA 15-5; for Anti-bacterial activity (MIC), strain EFA 15-6: clinical isolate EFA 15-6; for Anti-bacterial activity (MIC), strain EFA 15-9: clinical isolate EFA 15-9
# Summary of the method: (§1)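 MIC values come from two-fold agar dilution run per CLSI antimicrobial susceptibility testing procedure.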
# [2] = system: Enterococcus faecium (EFM); test: as above; settings: for Anti-bacterial activity (MIC), strain EFM 15-1: clinical isolate EFM 15-1; for Anti-bacterial activity (MIC), strain EFM 15-2: clinical isolate EFM 15-2; for Anti-bacterial activity (MIC), strain EFM 15-3: clinical isolate EFM 15-3; for Anti-bacterial activity (MIC), strain EFM 15-4: clinical isolate EFM 15-4; for Anti-bacterial activity (MIC), strain EFM 15-5: clinical isolate EFM 15-5; for Anti-bacterial activity (MIC), strain EFM 15-6: clinical isolate EFM 15-6
# Summary of the method: as §1
# [3] = system: Escherichia coli (including ESBLs, non-ESBLs); test: as above; settings: for Anti-bacterial activity (MIC), strain ECO+ 15-1: clinical isolate ECO+ 15-1; for Anti-bacterial activity (MIC), strain ECO+ 15-2: clinical isolate ECO+ 15-2; for Anti-bacterial activity (MIC), strain ECO+ 15-3: clinical isolate ECO+ 15-3; for Anti-bacterial activity (MIC), strain ECO+ 15-4: clinical isolate ECO+ 15-4; for Anti-bacterial activity (MIC), strain ECO− 15-1: clinical isolate ECO− 15-1; for Anti-bacterial activity (MIC), strain ECO− 15-2: clinical isolate ECO− 15-2; for Anti-bacterial activity (MIC), strain ECO− 15-3: clinical isolate ECO− 15-3; for Anti-bacterial activity (MIC), strain ECO− 15-4: clinical isolate ECO− 15-4
# Summary of the method: as §1
# [4] = system: Moraxella catarrhalis (BCA); test: as above; settings: for Anti-bacterial activity (MIC), strain BCA 14-1: clinical isolate BCA 14-1; for Anti-bacterial activity (MIC), strain BCA 14-4: clinical isolate BCA 14-4; for Anti-bacterial activity (MIC), strain BCA 14-5: clinical isolate BCA 14-5; for Anti-bacterial activity (MIC), strain BCA 14-6: clinical isolate BCA 14-6; for Anti-bacterial activity (MIC), strain BCA 14-7: clinical isolate BCA 14-7; for Anti-bacterial activity (MIC), strain BCA 14-8: clinical isolate BCA 14-8; for Anti-bacterial activity (MIC), strain BCA 14-10: clinical isolate BCA 14-10
# Summary of the method: as §1
# [5] = system: Streptococcus pneoumoniae (SPN); test: as above; settings: for Anti-bacterial activity (MIC), strain SPN 16-2: clinical isolate SPN 16-2; for Anti-bacterial activity (MIC), strain SPN 16-4: clinical isolate SPN 16-4
# Summary of the method: as §1
# [6] = system: methicillin-resistant Staphylococcus aureus (MRSA); test: as above; settings: for Anti-bacterial activity (MIC), strain MRSA 15-1: clinical isolate MRSA 15-1; for Anti-bacterial activity (MIC), strain MRSA 15-3: clinical isolate MRSA 15-3; for Anti-bacterial activity (MIC), strain MRSA 15-4: clinical isolate MRSA 15-4
# Summary of the method: as §1
# [7] = system: methicillin-resistant Staphylococcus epidermidis (MRSE); test: as above; settings: for Anti-bacterial activity (MIC), strain MRSE 15-1: clinical isolate MRSE 15-1; for Anti-bacterial activity (MIC), strain MRSE 15-2: clinical isolate MRSE 15-2; for Anti-bacterial activity (MIC), strain MRSE 15-3: clinical isolate MRSE 15-3; for Anti-bacterial activity (MIC), strain MRSE 15-7: clinical isolate MRSE 15-7
# Summary of the method: as §1
# [8] = system: methicillin-sensitive Staphylococcus aureus (MSSA); test: as above; settings: for Anti-bacterial activity (MIC), strain MSSA 15-3: clinical isolate MSSA 15-3; for Anti-bacterial activity (MIC), strain MSSA 15-4: clinical isolate MSSA 15-4; for Anti-bacterial activity (MIC), strain MSSA 15-5: clinical isolate MSSA 15-5; for Anti-bacterial activity (MIC), strain MSSA 15-6: clinical isolate MSSA 15-6
# Summary of the method: as §1
# [9] = system: methicillin-sensitive Staphylococcus epidermidis (MSSE); test: as above; settings: for Anti-bacterial activity (MIC), strain MSSE 15-3: clinical isolate MSSE 15-3; for Anti-bacterial activity (MIC), strain MSSE 15-4: clinical isolate MSSE 15-4; for Anti-bacterial activity (MIC), strain MSSE 15-5: clinical isolate MSSE 15-5; for Anti-bacterial activity (MIC), strain MSSE 15-6: clinical isolate MSSE 15-6
# Summary of the method: as §1
# [10] = system: HCT-116 colorectal cancer cell line; test: CCK-8 proliferation inhibition; settings: Homo sapiens, HCT-116, 72 h, concentration of 30 μM; 72 hours; CCK-8; read-out: HCT116 inhibition rate/%
# Summary of the method: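 HCT-116 cells, seeded at 2000 cells/well in McCoy's 5A with 10% newborn bovine serum, were cultured overnight at 37° C., 5% CO2, then exposed to compound dilutions in medium for 72 hours. Viability was read with 1:10 diluted CCK-8; controls received 1‰ DMSO.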
smiles,measurement,setting,value
"CCCC[C@H](CC(=O)NO)C(=O)N1CC2(CC2)C[C@H]1C(=O)Nc1cccnn1 [Example 48, (S)-5-((R)-2-(2-(hydroxyamino)-2-oxoethyl)hexanoyl)-N-(pyridazin-3-yl)-5-azaspiro[2.4]heptane-6-amide]","Anti-bacterial activity (MIC), strain EFA 15-1",[1],> 32 µg/mL
same,"Anti-bacterial activity (MIC), strain EFA 15-2",[1],> 32 µg/mL
same,"Anti-bacterial activity (MIC), strain EFA 15-3",[1],> 32 µg/mL
same,"Anti-bacterial activity (MIC), strain EFA 15-4",[1],> 32 µg/mL
same,"Anti-bacterial activity (MIC), strain EFA 15-5",[1],> 32 µg/mL
same,"Anti-bacterial activity (MIC), strain EFA 15-6",[1],> 32 µg/mL
same,"Anti-bacterial activity (MIC), strain EFA 15-9",[1],32 µg/mL
same,"Anti-bacterial activity (MIC), strain EFM 15-1",[2],> 32 µg/mL
same,"Anti-bacterial activity (MIC), strain EFM 15-2",[2],> 32 µg/mL
same,"Anti-bacterial activity (MIC), strain EFM 15-3",[2],> 32 µg/mL
same,"Anti-bacterial activity (MIC), strain EFM 15-4",[2],> 32 µg/mL
same,"Anti-bacterial activity (MIC), strain EFM 15-5",[2],1 µg/mL
same,"Anti-bacterial activity (MIC), strain EFM 15-6",[2],8 µg/mL
same,"Anti-bacterial activity (MIC), strain ECO+ 15-1",[3],8 µg/mL
same,"Anti-bacterial activity (MIC), strain ECO+ 15-2",[3],> 32 µg/mL
same,"Anti-bacterial activity (MIC), strain ECO+ 15-3",[3],32 µg/mL
same,"Anti-bacterial activity (MIC), strain ECO+ 15-4",[3],32 µg/mL
same,"Anti-bacterial activity (MIC), strain ECO− 15-1",[3],> 32 µg/mL
same,"Anti-bacterial activity (MIC), strain ECO− 15-2",[3],> 32 µg/mL
same,"Anti-bacterial activity (MIC), strain ECO− 15-3",[3],> 32 µg/mL
same,"Anti-bacterial activity (MIC), strain ECO− 15-4",[3],> 32 µg/mL
same,"Anti-bacterial activity (MIC), strain BCA 14-1",[4],> 32 µg/mL
same,"Anti-bacterial activity (MIC), strain BCA 14-4",[4],> 32 µg/mL
same,"Anti-bacterial activity (MIC), strain BCA 14-5",[4],8 µg/mL
same,"Anti-bacterial activity (MIC), strain BCA 14-6",[4],> 32 µg/mL
same,"Anti-bacterial activity (MIC), strain BCA 14-7",[4],16 µg/mL
same,"Anti-bacterial activity (MIC), strain BCA 14-8",[4],16 µg/mL
same,"Anti-bacterial activity (MIC), strain BCA 14-10",[4],> 32 µg/mL
same,"Anti-bacterial activity (MIC), strain SPN 16-2",[5],8 µg/mL
same,"Anti-bacterial activity (MIC), strain SPN 16-4",[5],8 µg/mL
same,"Anti-bacterial activity (MIC), strain MRSA 15-1",[6],2 µg/mL
same,"Anti-bacterial activity (MIC), strain MRSA 15-2",[6]; clinical isolate MRSA 15-2,8 µg/mL
same,"Anti-bacterial activity (MIC), strain MRSA 15-3",[6],2 µg/mL
same,"Anti-bacterial activity (MIC), strain MRSA 15-4",[6],8 µg/mL
same,"Anti-bacterial activity (MIC), strain MRSE 15-1",[7],8 µg/mL
same,"Anti-bacterial activity (MIC), strain MRSE 15-2",[7],8 µg/mL
same,"Anti-bacterial activity (MIC), strain MRSE 15-3",[7],8 µg/mL
same,"Anti-bacterial activity (MIC), strain MRSE 15-7",[7],8 µg/mL
same,"Anti-bacterial activity (MIC), strain MSSA 15-3",[8],8 µg/mL
same,"Anti-bacterial activity (MIC), strain MSSA 15-4",[8],8 µg/mL
same,"Anti-bacterial activity (MIC), strain MSSA 15-5",[8],8 µg/mL
same,"Anti-bacterial activity (MIC), strain MSSA 15-6",[8],> 32 µg/mL
same,"Anti-bacterial activity (MIC), strain MSSE 15-3",[9],8 µg/mL
same,"Anti-bacterial activity (MIC), strain MSSE 15-4",[9],32 µg/mL
same,"Anti-bacterial activity (MIC), strain MSSE 15-5",[9],8 µg/mL
same,"Anti-bacterial activity (MIC), strain MSSE 15-6",[9],8 µg/mL
same,inhibition at 30 µM,[10],20%
"CCCC[C@H](CC(=O)NO)C(=O)N1CC2(CC2)C[C@H]1C(=O)Nc1ncccc1F [Example 49, (S)—N-(3-fluoropyridin-2-yl)-5-((R)-2-(2-(hydroxyamino)-2-oxoethyl)hexanoyl)-5-azaspiro[2.4]heptane-6-amide]","Anti-bacterial activity (MIC), strain EFA 15-1",[1],> 32 µg/mL
same,"Anti-bacterial activity (MIC), strain EFA 15-2",[1],> 32 µg/mL
same,"Anti-bacterial activity (MIC), strain EFA 15-3",[1],> 32 µg/mL
same,"Anti-bacterial activity (MIC), strain EFA 15-4",[1],> 32 µg/mL
same,"Anti-bacterial activity (MIC), strain EFA 15-5",[1],> 32 µg/mL
same,"Anti-bacterial activity (MIC), strain EFA 15-6",[1],> 32 µg/mL
same,"Anti-bacterial activity (MIC), strain EFA 15-9",[1],> 32 µg/mL
same,"Anti-bacterial activity (MIC), strain EFM 15-1",[2],> 32 µg/mL
same,"Anti-bacterial activity (MIC), strain EFM 15-2",[2],> 32 µg/mL
same,"Anti-bacterial activity (MIC), strain EFM 15-3",[2],> 32 µg/mL
same,"Anti-bacterial activity (MIC), strain EFM 15-4",[2],> 32 µg/mL
same,"Anti-bacterial activity (MIC), strain EFM 15-5",[2],2 µg/mL
same,"Anti-bacterial activity (MIC), strain EFM 15-6",[2],2 µg/mL
same,"Anti-bacterial activity (MIC), strain ECO+ 15-1",[3],> 32 µg/mL
same,"Anti-bacterial activity (MIC), strain ECO+ 15-2",[3],> 32 µg/mL
same,"Anti-bacterial activity (MIC), strain ECO+ 15-3",[3],> 32 µg/mL
same,"Anti-bacterial activity (MIC), strain ECO+ 15-4",[3],> 32 µg/mL
same,"Anti-bacterial activity (MIC), strain ECO− 15-1",[3],> 32 µg/mL
same,"Anti-bacterial activity (MIC), strain ECO− 15-2",[3],> 32 µg/mL
same,"Anti-bacterial activity (MIC), strain ECO− 15-3",[3],> 32 µg/mL
same,"Anti-bacterial activity (MIC), strain ECO− 15-4",[3],> 32 µg/mL
same,"Anti-bacterial activity (MIC), strain BCA 14-1",[4],> 32 µg/mL
same,"Anti-bacterial activity (MIC), strain BCA 14-4",[4],> 32 µg/mL
same,"Anti-bacterial activity (MIC), strain BCA 14-5",[4],4 µg/mL
same,"Anti-bacterial activity (MIC), strain BCA 14-6",[4],> 32 µg/mL
same,"Anti-bacterial activity (MIC), strain BCA 14-7",[4],> 32 µg/mL
same,"Anti-bacterial activity (MIC), strain BCA 14-8",[4],> 32 µg/mL
same,"Anti-bacterial activity (MIC), strain BCA 14-10",[4],> 32 µg/mL
same,"Anti-bacterial activity (MIC), strain SPN 16-2",[5],4 µg/mL
same,"Anti-bacterial activity (MIC), strain SPN 16-4",[5],4 µg/mL
same,"Anti-bacterial activity (MIC), strain MRSA 15-1",[6],8 µg/mL
same,"Anti-bacterial activity (MIC), strain MRSA 15-3",[6],16 µg/mL
same,"Anti-bacterial activity (MIC), strain MRSA 15-4",[6],16 µg/mL
same,"Anti-bacterial activity (MIC), strain MRSE 15-1",[7],> 32 µg/mL
same,"Anti-bacterial activity (MIC), strain MRSE 15-2",[7],> 32 µg/mL
same,"Anti-bacterial activity (MIC), strain MRSE 15-3",[7],> 32 µg/mL
same,"Anti-bacterial activity (MIC), strain MRSE 15-7",[7],> 32 µg/mL
same,"Anti-bacterial activity (MIC), strain MSSA 15-3",[8],16 µg/mL
same,"Anti-bacterial activity (MIC), strain MSSA 15-4",[8],16 µg/mL
same,"Anti-bacterial activity (MIC), strain MSSA 15-5",[8],> 32 µg/mL
same,"Anti-bacterial activity (MIC), strain MSSA 15-6",[8],> 32 µg/mL
same,"Anti-bacterial activity (MIC), strain MSSE 15-3",[9],> 32 µg/mL
same,"Anti-bacterial activity (MIC), strain MSSE 15-4",[9],> 32 µg/mL
same,"Anti-bacterial activity (MIC), strain MSSE 15-5",[9],> 32 µg/mL
same,"Anti-bacterial activity (MIC), strain MSSE 15-6",[9],> 32 µg/mL
same,inhibition at 30 µM,[10],8%
